The results in this text go back to paper PMC5772982 (Molecular cell, 2017).

As usually defined, the Kd is the constant that tells how readily two partners part at equilibrium. High values mean a looser complex, low ones a tighter complex.

In the test the target is T1, PYL1 (Arabidopsis thaliana, UniProt Q8VZS8, S119A).
T1 sequence (Q8VZS8 2-221 S119A): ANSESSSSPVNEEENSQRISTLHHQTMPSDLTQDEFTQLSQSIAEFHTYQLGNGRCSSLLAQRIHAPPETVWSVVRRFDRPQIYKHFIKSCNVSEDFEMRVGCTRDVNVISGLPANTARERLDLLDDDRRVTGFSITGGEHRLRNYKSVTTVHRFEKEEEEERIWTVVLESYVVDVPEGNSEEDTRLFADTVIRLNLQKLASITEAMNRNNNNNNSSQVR
The experiment in a line: microscale thermophoresis. Format: binding.

For the compound `CC1=CC(=O)CC(C)(C)[C@@]1(O)/C=C/C(C)=C\C(=O)O` [Abscisic Acid], the Kd was 219 µM.
